From paper PMC6312923 (Life Science Alliance, 2018)

B1: Cdt2^PIP-3A: Cdt2 with I709, Y712, and F713 all mutated to alanine (protein, UniProt Q9NZJ0 1-730, looked up, variant I709A Y712A F713A)
Denticleless protein homolog: MLFNSVLRQPQLGVLRNGWSSQYPLQSLLTGYQCSGNDEHTSYGETGVPVPPFGCTFSSAPNMEHVLAVANEEGFVRLYNTESQSFRKKCFKEWMAHWNAVFDLAWVPGELKLVTAAGDQTAKFWDVKAGELIGTCKGHQCSLKSVAFSKFEKAVFCTGGRDGNIMVWDTRCNKKDGFYRQVNQISGAHNTSDKQTPSKPKKKQNSKGLAPSVDFQQSVTVVLFQDENTLVSAGAVDGIIKVWDLRKNYTAYRQEPIASKSFLYPGSSTRKLGYSSLILDSTGSTLFANCTDDNIYMFNMTGLKTSPVAIFNGHQNSTFYVKSSLSPDDQFLVSGSSDEAAYIWKVSTPWQPPTVLLGHSQEVTSVCWCPSDFTKIATCSDDNTLKIWRLNRGLEEKPGGDKLSTVGWASQKKKESRPGLVTVTSSQSTPAKAPRAKCNPSNSSPSSAACAPSCAGDLPLPSNTPTFSIKTSPAKARSPINRRGSVSSVSPKPPSSFKMSIRNWVTRTPSSSPPITPPASETKIMSPRKALIPVSQKSSQAEACSESRNRVKRRLDSSCLESVKQKCVKSCNCVTELDGQVENLHLDLCCLAGNQEDLSKDSLGPTKSSKIEGAGTSISEPPSPISPYASESCGTLPLPLRPCGEGSEMVGKENSSPENKNWLLAMAAKRKAENPSPRSPSSQTPNSRRQSGKKLPSPVTITPSSMRKACTAAHRKSQEDFCGPEHSTEL
modifications: FLAG tag
notes: Cdt2 with I709, Y712, and F713 all mutated to alanine

Key:
Assay type in all cases: cell-based, human
HEK293 cells, PCNA foci = experiment: Co-localization of Cdt2 with PCNA foci (S phase) in HEK293 cells; conditions: stable HEK293, asynchronous, pre-extracted
Description: XPA, a component of nucleotide excision repair, staining was used to confirm that similar extents of DNA damage were induced both in Cdt2^WT- and Cdt2^PIP-3A-expressing cells. […] A similar percentage of PCNA-positive S-phase cells was detected both in Cdt2^1–730/WT-expressing cells and Cdt2^PIP-3A-expressing cells (Fig S6). […] More than 80% of PCNA-positive cells were co-stained with Cdt2^WT, with the early S-phase cells displaying stronger Cdt2^WT staining than the late S-phase cells as reported ([Nukina et al, 2018]) (Figs 6B and C, and S6A).
Figure 6. The Cdt2 PIP box is important for its recruitment to DNA damage sites and replication foci and for poly-ubiquitination activity. (A) HEK293 and stable Cdt2^WT or Cdt2^PIP-3A cells were locally UV irradiated, and stained for XPA and FLAG (Cdt2). XPA-positive spots were examined for FLAG signal, and its frequency was counted (%). More than 50 spots were examined. bar:10 μm. […] Bar: 10 μm. […] (D) Whole-cell extracts were prepared from HEK293 and stably transfected cells of Cdt2^WT or Cdt2^PIP-3A cells, separated into soluble (Sup) and chromatin-containing insoluble (Ppt) fractions, and were examined for indicated proteins. The asterisk indicates nonspecific bands. […]
(§1) For Western blotting, whole-cell lysates were prepared by lysing cell pellets directly in SDS–PAGE buffer. […] Protein levels were analysed by ImageJ software.

[1] = system: chromatin-containing fraction, HEK293 cells; experiment: Chromatin fractionation of Cdt2; conditions: stable HEK293, Western blot
Procedure: Figure 6. The Cdt2 PIP box is important for its recruitment to DNA damage sites and replication foci and for poly-ubiquitination activity. (A) HEK293 and stable Cdt2^WT or Cdt2^PIP-3A cells were locally UV irradiated, and stained for XPA and FLAG (Cdt2). XPA-positive spots were examined for FLAG signal, and its frequency was counted (%). More than 50 spots were examined. bar:10 μm. […] Bar: 10 μm. […] (D) Whole-cell extracts were prepared from HEK293 and stably transfected cells of Cdt2^WT or Cdt2^PIP-3A cells, separated into soluble (Sup) and chromatin-containing insoluble (Ppt) fractions, and were examined for indicated proteins. The asterisk indicates nonspecific bands. (E) HEK293 and stably transfected cells of Cdt2^WT or Cdt2^PIP-3A were treated with MG132 for 3 h. Whole-cell extracts (WCE) were prepared, separated into soluble (Sup) and insoluble (Ppt) fractions, and blotted with the indicated antibodies.
Cell extracts were prepared using 0.1% Triton X-100–containing mCSK buffer (200 μg of total protein in 400–800 μl). After centrifugation (17,900g for 10 min at 4°C), soluble and chromatin-containing pellet fractions were obtained. The pellets were washed with ice-cold 0.1% Triton X-100–containing mCSK buffer and subsequently suspended in SDS sample buffer.

[2] = system: Cdt1 degradation in S/G2, U2OS cells; experiment: Cdt1-positive cells among cyclin A-positive U2OS cells; conditions: siCdt2 and/or siSkp2
Procedure: Next, we examined Cdt1 degradation after the onset of the S phase in the Cdt2^PIP-3A-expressing cells. Cyclin A is present in the S and G2 phase, when Cdt1 should be degraded. Thus, Cdt1 should be present in cells that are negative for cyclin A, and absent in cells that are positive for cyclin A ([Nishitani et al, 2006]; [Xouri et al., 2007a], [2007b]). Cdt1 degradation after the onset of the S phase is carried out by two ubiquitin ligases, CRL1^Skp2 and CRL4^Cdt2. We depleted the substrate recognition subunits, Cdt2 and/or Skp2, by siRNA, and the percentage of Cdt1 positive cells among cyclin A–positive cells was assessed by immunofluorescence. […]
Figure 8. […] The frequency of Cdt1-positive (+) cells among cyclin A–positive (+) cells was calculated (n = 3). […] (D) Cells treated with siCdt2 or control siLuc were measured for their nuclear size (n = 200 for each), and are shown in a scatter plot. […]
as §1
Double-stranded RNAs were transfected at 100 nM using Oligofectamine (Invitrogen) or HiPerFect (QIAGEN). […] For Cdt1 silencing in Fig 1A and B, unsychronized HeLa cells were transfected twice with 200 nM of Cdt1 siRNA or control luciferase siRNA using Lipofectamine 2000 with a time interval of 24 h and were analysed 48 h after the second transfection. […]

Molecule | PCNA-positive cells co-stained with Cdt2 (HEK293 cells, PCNA foci) | recovery in chromatin-containing fraction [1] | rescue of Cdt1 degradation in cell cycle [2] | Cdt2 signal in PCNA foci (HEK293 cells, PCNA foci)
Cdt2: Cdt2 tagged with GFP, transiently expressed in MCF7 cells | More than 80% | recovered in a chromatin-containing fraction | fully complemented the depletion of Cdt2, and also the co-depletion of Skp2 | 
B1 |  | undetectable | not fully rescued | almost no signal was detected
